Consider two compounds from ChEMBL document CHEMBL1156607, “A new multi-gram synthetic route to labeling precursors for the D(2/3) PET agent 18F-fallypride” (Bioorg Med Chem Lett, 2008).

Broadly, the IC50 is the concentration at which inhibition is half-maximal. The low end stands for inhibition by little substance, the high end for a need for much substance.

The target in this assay is D(2) dopamine receptor (Homo sapiens, UniProt P14416). The assay can be described thus: Antagonist activity at dopamine D2 receptor. In kind it is functional.
D(2) dopamine receptor, sequence (P14416 whole entry): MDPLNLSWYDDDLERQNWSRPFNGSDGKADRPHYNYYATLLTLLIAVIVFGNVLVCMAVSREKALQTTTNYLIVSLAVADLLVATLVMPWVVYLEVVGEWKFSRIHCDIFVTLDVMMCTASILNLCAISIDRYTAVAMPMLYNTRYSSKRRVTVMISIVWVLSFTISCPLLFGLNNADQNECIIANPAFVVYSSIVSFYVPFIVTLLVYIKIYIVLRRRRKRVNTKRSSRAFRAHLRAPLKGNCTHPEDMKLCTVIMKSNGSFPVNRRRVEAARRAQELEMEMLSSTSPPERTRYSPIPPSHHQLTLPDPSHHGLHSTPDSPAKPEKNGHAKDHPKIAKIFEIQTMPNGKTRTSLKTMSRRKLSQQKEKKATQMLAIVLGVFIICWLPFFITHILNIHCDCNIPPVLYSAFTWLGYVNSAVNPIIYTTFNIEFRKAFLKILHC

The compound `C=CCN1CCC[C@H]1CNC(=O)c1cc(CCCCl)cc(OC)c1OC` had an IC50 of 17.1 nM.

Take `C=CCN1CCC[C@H]1CNC(=O)c1cc(CCCF)cc(OC)c1OC` [FALLYPRIDE]: the IC50 turned out to be 5 nM.
